Assay results: US5134150A, “Inhibition of the 5-lipoxygenase pathway” (priority 1989, dated 1992)

Molecular target: T1, 5-Lipoxygenase (Rattus norvegicus, UniProt P12527)
T1 construct: The activities of these enzymes in extracts of RBL-1 cells were assayed; host or cells: RBL-1
T1 sequence (P12527 1-673): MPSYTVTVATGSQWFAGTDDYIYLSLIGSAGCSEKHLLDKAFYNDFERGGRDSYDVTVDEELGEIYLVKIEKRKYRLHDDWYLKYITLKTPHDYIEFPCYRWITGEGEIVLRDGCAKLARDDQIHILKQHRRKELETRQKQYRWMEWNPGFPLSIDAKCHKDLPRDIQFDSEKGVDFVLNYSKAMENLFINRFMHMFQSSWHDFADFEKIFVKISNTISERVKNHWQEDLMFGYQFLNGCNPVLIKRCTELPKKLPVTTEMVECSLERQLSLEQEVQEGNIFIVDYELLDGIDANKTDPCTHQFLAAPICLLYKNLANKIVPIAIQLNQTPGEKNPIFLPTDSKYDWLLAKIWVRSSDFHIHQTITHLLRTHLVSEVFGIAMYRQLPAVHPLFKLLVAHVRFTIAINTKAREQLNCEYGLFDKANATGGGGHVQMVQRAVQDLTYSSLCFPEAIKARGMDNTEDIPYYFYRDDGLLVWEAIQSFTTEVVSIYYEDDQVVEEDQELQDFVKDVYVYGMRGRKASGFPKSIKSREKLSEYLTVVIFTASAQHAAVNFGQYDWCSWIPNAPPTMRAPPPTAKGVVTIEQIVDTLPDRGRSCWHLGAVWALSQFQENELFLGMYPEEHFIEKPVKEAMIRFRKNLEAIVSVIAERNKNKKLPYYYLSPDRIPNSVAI
Experiment: 5-HETE production by high speed supernatant of RBL-1 cells
Format: biochemical
Protocol: For in vitro experiments, compounds were dissolved at appropriate concentrations in ethanol or DMSO (dimethylsulfoxide) (final concentration≤1.0%) and then diluted to final concentrations using the buffers indicated in the text.
The activities of these enzymes in extracts of RBL-1 cells were assayed using the method of Jakschik and Lee, Nature, 287, 51-52 (1980). RBL-1 cells were obtained from the American Type Culture Collection (#CRL 1378) and were grown at 37° C. (5% CO2 in air) in spinner culture in MEM supplemented with 10% heat inactivated fetal calf serum. Harvested cells were washed with 50 mM sodium phosphate buffer, pH 7.0, containing 1 mM EDTA and 0.1% gelatin, resuspended in fresh buffer (5×10^7 cells/ml) and disrupted by nitrogen cavitation using the Parr bomb at 750 psi for 10 min. The broken cell extract was then centrifuged at 10,000× g for 20 minutes (min) and the supernatant centrifuged at 100,000 xIg for 60 min. Aliquots (0.25 mls) of the supernatant were preincubated with or without drugs for 10 min, after which 10 μl CaCl2 (50 mM) was added and the reaction was initiated with 2.5 μl of 2.5 mM arachidonic acid-1-^14 C (final concentration was 25 μM; specific activity 20,000 dpm/nmole). After incubation for 3 min at 37° C., the reaction was terminated by addition of 2 volumes (0.5 ml) ice cold acetone and the sample was allowed to deproteinize on ice for 10 min prior to centrifugation at 1,000× g for 10 min. The deproteinized supernatant was adjusted to pH 3.5 with 2N formic acid and extracted with 2 volumes of ice cold ethyl acetate. The extracted samples were dried under argon, redissolved in ethyl acetate and applied to Whatman LK5D thin layer chromatography (TLC) plates which were developed using the A-9 solvent system [organic phase of ethyl acetate: 2,2,5-trimethylpentane:acetic acid: water (110:50:20:10)] described by Hamberg and Samuelsson, J. Biol. Chem., 241, 257-263 (1966). Arachidonic acid, 5-HETE, LTB4 and PGD2 were quantified with a Berthold LB 2832 autoscanner.
The 5-lipoxygenase and LTA4 synthetase activities were further studied under the following conditions. An additional centrifugation of the RBL-1 supernatant was run at 100,000× g for 60 min, to remove the particulate cyclooxygenase activity. Sample incubation was done under conditions similar to those described above, i.e., 2 mM CaCl2 and […] arachidonic acid-1-^14 C, however, with an incubation time of 5 min at 5° C. Under these conditions, only the 5-lipoxygenase pathway metabolites were detectable. The 5-HETE and di-HETEs were formed at a linear rate, and substantial amounts of the arachidonic acid-1-^14 C substrate were utilized.

## Fc1ccc(-c2nc3n(c2-c2ccncc2)CCS3)cc1 [Compound 1]
1 μM
  5-HETE: 8.86 ± 0.31 nM/ml
3.3 μM
  5-HETE: 7.63 ± 0.44 nM/ml
10 μM
  5-HETE: 5.57 ± 0.35 nM/ml
33 μM
  5-HETE: 3.36 ± 0.07 nM/ml
100 μM
  5-HETE: 1.08 ± 0.13 nM/ml
